Measured values as given in publication PMC11965660, “Isobavachalcone ameliorates Alzheimer disease pathology by autophagy-mediated clearance of amyloid beta and inhibition of NLRP3 inflammasome in primary astrocytes and 5x-FAD mice” (Frontiers in Pharmacology, 2025).
“Also recorded” adds a separate entry of the source. Where two headings read alike, the source gives them in different places.

What was measured:
5x-FAD mice hippocampus = experiment: Immunoblotting of autophagy, NLRP3 inflammasome and neuroinflammation proteins in hippocampus; format: in vivo; conditions: 25 and 50 mg/kg
Method: Cellular lysates were prepared using radio immuno precipitation assay (RIPA) buffer for protein analysis. Briefly, the cell pellet was dissolved in RIPA buffer containing sodium fluoride, sodium orthovanadate, phenyl methyl sulfonyl fluoride (PMSF) and 1% protease inhibitor cocktail for 1 h with vertexing sample every 15 min. The supernatant was collected after high-speed centrifugation of samples for 20 min at 4°C. For analysis of proteins in mice hippocampi, the hippocampi isolated from mice brains was immediately washed with saline and stored in liquid nitrogen. For lysates preparation, tissue was homogenized in RIPA buffer substituted with sodium fluoride, sodium orthovanadate, phenyl methyl sulfonyl fluoride and 1% protease inhibitor cocktail. Total protein was measured using Bradford assay. Proteins were separated using SDS-PAGE and then transferred from gel to PVDF membrane. The protein of interest was labeled with a specific primary antibody overnight at 4°C. Further, the blot was incubated with corresponding HRP-conjugated secondary antibody for 1 h at room temperature. The band were visualized in the Genaxy Chemi Doc imaging system (Make: Syngene, Maryland, USA; Model: G: BOX, XT-4). Densitometry analysis of all the immunoblots was performed by using ImageJ software. Band density of proteins was normalized with β-actin. The phosphorylated proteins were normalized with their total forms.
Hemizygous 5x-FAD transgenic mice (B6.Cg-Tg(APPSwFlLon, PSEN1*M146L*L286V) 6799Vas/Mmjax; MMRRC Strain: 034848-JAX) on congenic C57BL/6J genetic background were used for experiments. The 5x-FAD mice were genotyped using APP-specific qPCR probes to detect the transgene as per the protocol of Jackson Laboratory. Six months old 5x-FAD mice were randomly divided into three groups (n = 5), based on their body weights, with three males and two females in each group. We used mixed-cohort of males and females for our study to exclude any gender biased effect of IBC. Also, AD symptoms are more pronounced in females than in males ([Aggarwal and Mielke, 2023]), making it possible that males and females respond differently to the drug and treatment. Considering this, it is important to show effect of IBC on both sexes. At this age, Aβ deposition and neuroinflammation has already progressed in these mice. We have used IBC as a curative drug rather than a preventive drug. Prior to the initiation of the study, all the animals were acclimatized for 1 week under standard laboratory conditions; animals were drug naive with no prior procedures performed. All testing were performed from 1 to 4 p.m. IBC was orally (OD) given to two groups at different doses, 25 mg/kg (1% DMSO, 2% Tween 80, 19% PEG200, and 78% distilled water) and 50 mg/kg (1% DMSO, 5% Tween 80, 19% PEG200% and 75% distilled water) using oral gavage. 5x-FAD control mice were administered with vehicle (1% DMSO, 5% Tween 80, 19% PEG200% and 75% distilled water). For behavioral and Immunohistochemistry assays, experimenters were blinded to animal identity while carrying out the procedures.

[1] = Pharmacokinetic analysis in plasma and brain; format: in vivo; conditions: C57BL/6J mice
Method: C57BL/6J (Jax:000664) male mice were used for pharmacokinetic analysis of IBC. Mice were randomly sorted into 9 groups (n = 5). 30 mg/kg oral dose of IBC (1% DMSO +70% PEG-200 + 29% water) was given to mice. Blood or brain samples were collected at 0, 0.25, 0.5, 1, 2, 4, 6, 8 and 24 h. The plasma (100 µL) sample was processed with ethyl acetate (200 µL) containing IS (150 ng/mL) and centrifuged at 300 g for 10 min. The organic layer was separated and dried in a vacuum, reconstituted with acetonitrile, and analyzed by LC-MS/MS [SRM transition of IBC and IS (Phenacetin) is 325.2 & gt; 149.0 and 180.2 & gt; 110.2 in Positive mode]. Brain homogenate was prepared using the weighted amount of brain tissue in water at the concentration level of 350 mg/mL and processed similarly to plasma samples.

primary astrocytes = experiment: Cell viability assay (MTT and SRB); format: cell-based, C57BL/6J mice; conditions: 24 h, up to 100 μM
Method: For cell viability assay, primary astrocytes were seeded in 96 well plate and IBC treatment at different concentration was given for 24 h. For MTT assay, cells were treated with 1.25, 2.5, 5, 10, 20, 40, 80 and 100 μM of IBC, while for the SRB assay, 0.625, 1.25, 2.5, 5, […], 20, 40, 80 and 100 μM IBC treatment was given. MTT dye at a concentration of 2.5 mg/ml was added 4 h before experiment termination. Formazan crystals thus formed were dissolved in DMSO and absorbance was measured at 570 nm.
For the SRB assay, the experiment was terminated by adding 50% chilled TCA into the wells for 1 h. Pellets were washed five times with distilled water and kept drying. Cells were then incubated with SRB dye for 30 min at RT, followed by washing with 1% acetic acid thrice. After drying, pellets were dissolved in 10 mM Tris-HCl (pH-10.5) and absorbance was measured at 540 nm.

LC3B and LAMP1 = LC3B and LAMP1 co-localization by confocal microscopy; format: cell-based, C57BL/6J mice; conditions: primary astrocytes, 10 μM, 24 h
Method: Cells were seeded on coverslips in 6 well plates. After treatments, cells were fixed with 4% paraformaldehyde (PFA) for 15 min and permeabilized with 0.1% Triton-X 100 for 7 min. Blocking was done for 30 min with 2% BSA, followed by overnight incubation with primary antibody. Alexa fluor conjugated secondary antibody incubation was given to cells for 1 h for labeling. The nucleus was stained with 4,6-diamidino-2-phenylindole (DAPI) (1 μg/mL) for 10 min. Following staining, the coverslips were mounted on slides using mounting media (PBS and glycerol at a ratio of 1:9). Cells were washed thrice with PBS after each incubation. The images were acquired in a CQ1 high-throughput imaging system.

[2] = male, mouse, blood plasma, 30 mg/kg oral
[3] = male, mouse, brain, 30 mg/kg oral

Cl ([1]; blood plasma, 30 mg/kg oral): 833 ± 120 mL/min/kg | Vd ([1]; blood plasma, 30 mg/kg oral): 355 ± 81 L/kg | AUC0-t ([1]; brain, 30 mg/kg oral): 72 ± 7 ng·h/g | AUC0-∞ ([1]; brain, 30 mg/kg oral): 79 ± 7 ng·h/g | Kp ([1]; male, mouse, brain and plasma, 30 mg/kg oral, read-out: brain-to-plasma ratio): 0.12 to 0.16 | AUC(0-inf) [1, 2]: 637 ± 74 ng·h/mL | Cmax [1, 2]: 208 ± 46 ng/mL | Tmax [1, 2]: 0.6 ± 0.1 h | half-life [1, 2]: 5.6 ± 1.5 h | AUC0-t ([1]; male, mouse, blood plasma, 30 mg/kg oral, read-out: AUC0-t): 548 ± 59 ng·h/mL | Cmax [1, 3]: 34 ± 4 ng/g | Tmax [1, 3]: 0.6 ± 0.1 h | half-life [1, 3]: 1.8 ± 0.4 h
Structure (SMILES): CC(C)=CCc1c(O)ccc(C(=O)/C=C/c2ccc(O)cc2)c1O [IBC, isobavachalcone]
GFAP expression (western blot) (5x-FAD mice hippocampus): decreased expression | ASC level (5x-FAD mice hippocampus; western blot): significant abrogation | ATG7 expression (5x-FAD mice hippocampus; western blot): increased expression | CASP1 level (5x-FAD mice hippocampus; western blot): significant abrogation | IBA1 expression (5x-FAD mice hippocampus; western blot): decreased expression | SQSTM1 expression (5x-FAD mice hippocampus; western blot): significantly decreased | cleavage of IL-1β (5x-FAD mice hippocampus; western blot): reduced cleavage | pAMPK expression (5x-FAD mice hippocampus; western blot): increased expression | blood-brain barrier penetration ([1]; single dose 30 mg/kg p.o., 30 mg/kg): low penetration; also recorded: low brain availability | toxicity in primary astrocytes (MTT and SRB) (primary astrocytes): no toxicity; also recorded: non-toxic | co-localization of LC3B and LAMP1 (LC3B and LAMP1): proximity of LC3B and LAMP1
